Results on 41 compounds are retold here after ChEMBL document CHEMBL1135452, “Side-chain homologation of nodulisporic acid: synthesis of potent new dienyl derivatives” (Bioorg Med Chem Lett, 2002).

The experiment concerns Pulicinae. Briefly: In vitro systemic flea efficacy using membrane feeding assay. Format: functional.
For the compound `C=C(C)[C@H]1C(=O)c2c3c(cc4c5c(n1c24)[C@@]1(C)C(CC[C@H]2[C@](C)(/C=C/C=C(\CC)C(N)=O)[C@@H](O)CC[C@@]21C)C5)C1=CC(C)(C)OC(C)(C)C1[C@@H]3O` (stereo partly specified), the Activity came out at 1 p.p.m.

Compound `C=C(C)[C@H]1C(=O)c2c3c(cc4c5c(n1c24)[C@@]1(C)C(CC[C@H]2[C@](C)(/C=C/C=C(\CCCC)C(=O)NCC)[C@@H](O)CC[C@@]21C)C5)C1=CC(C)(C)OC(C)(C)C1[C@@H]3O` (stereo partly specified) returned an Activity of 1 p.p.m.

In the case of `C=C(C)[C@H]1C(=O)c2c3c(cc4c5c(n1c24)[C@@]1(C)C(CC[C@H]2[C@](C)(/C=C/C=C(\OC)C(=O)NC(C)(C)C)[C@@H](O)CC[C@@]21C)C5)C1=CC(C)(C)OC(C)(C)C1C3` (stereo partly specified), the Activity was over 10 p.p.m.

`C=C(C)[C@H]1C(=O)c2c3c(cc4c5c(n1c24)[C@@]1(C)C(CC[C@H]2[C@](C)(/C=C/C(C)=C/C(=O)NCC)[C@@H](O)CC[C@@]21C)C5)C1=CC(C)(C)OC(C)(C)C1[C@@H]3O` (stereo partly specified): the Activity is 10 p.p.m.

The compound `C=C(C)[C@H]1C(=O)c2c3c(cc4c5c(n1c24)[C@@]1(C)C(CC[C@H]2[C@](C)(/C=C/C=C/C(=O)O)[C@@H](O)CC[C@@]21C)C5)C1=CC(C)(C)OC(C)(C)C1[C@@H]3O` (stereo partly specified) gave an Activity of 10 p.p.m.

`C=C(C)[C@H]1C(=O)c2c3c(cc4c5c(n1c24)[C@@]1(C)C(CC[C@H]2[C@](C)(/C=C/C=C(\C#N)C(=O)N(C)C)[C@@H](O)CC[C@@]21C)C5)C1=CC(C)(C)OC(C)(C)C1[C@@H]3O` (stereo partly specified) yielded an Activity of 1 p.p.m.

In turn, `C=C(C)[C@H]1C(=O)c2c3c(cc4c5c(n1c24)[C@@]1(C)C(CC[C@H]2[C@](C)(/C=C/C=C(\CC)C(=O)N(C)C)[C@@H](O)CC[C@@]21C)C5)C1=CC(C)(C)OC(C)(C)C1[C@@H]3O` (stereo partly specified) returned an Activity of 1 p.p.m.

For `C=C(C)[C@H]1C(=O)c2c3c(cc4c5c(n1c24)[C@@]1(C)C(CC[C@H]2[C@](C)(/C=C/C=C(\CC)C(=O)NCC)[C@@H](O)CC[C@@]21C)C5)C1=CC(C)(C)OC(C)(C)C1[C@@H]3O` (stereo partly specified), the Activity was determined as 1 p.p.m.

Take `C=C(C)[C@H]1C(=O)c2c3c(cc4c5c(n1c24)[C@@]1(C)C(CC[C@H]2[C@](C)(/C=C/C=C(\F)C(=O)NC(C)(C)C)[C@@H](O)CC[C@@]21C)C5)C1=CC(C)(C)OC(C)(C)C1[C@@H]3O` (stereo partly specified): the Activity was 1 p.p.m.

Compound `C=C(C)[C@H]1C(=O)c2c3c(cc4c5c(n1c24)[C@@]1(C)C(CC[C@H]2[C@](C)(/C=C/C(C)=C/C(=O)NC(C)(C)C)[C@@H](O)CC[C@@]21C)C5)C1=CC(C)(C)OC(C)(C)C1[C@@H]3O` (stereo partly specified) yielded an Activity of 10 p.p.m.

In turn, `C=CC/C(=C\C=C\[C@]1(C)[C@@H](O)CC[C@@]2(C)[C@H]1CCC1Cc3c(n4c5c(c6c(cc35)C3=CC(C)(C)OC(C)(C)C3[C@@H]6O)C(=O)[C@@H]4C(=C)C)[C@@]12C)C(N)=O` (stereo partly specified) came in with an Activity of 1 p.p.m.

Regarding `C=C(C)[C@H]1C(=O)c2c3c(cc4c5c(n1c24)[C@@]1(C)C(CC[C@H]2[C@](C)(/C=C/C=C(\C(C)=O)C(=O)N(C)C)[C@@H](O)CC[C@@]21C)C5)C1=CC(C)(C)OC(C)(C)C1[C@@H]3O` (stereo partly specified), the Activity worked out at 1 p.p.m.

On to `C=C(C)[C@H]1C(=O)c2c3c(cc4c5c(n1c24)[C@@]1(C)C(CC[C@H]2[C@](C)(/C=C/C(C)=C/C(=O)NC4CC4)[C@@H](O)CC[C@@]21C)C5)C1=CC(C)(C)OC(C)(C)C1[C@@H]3O` (stereo partly specified), for which the Activity is 1 p.p.m.

The compound `C=C(C)[C@H]1C(=O)c2c3c(cc4c5c(n1c24)[C@@]1(C)C(CC[C@H]2[C@](C)(/C=C/C=C(\CCC)C(=O)NC(C)(C)C)[C@@H](O)CC[C@@]21C)C5)C1=CC(C)(C)OC(C)(C)C1[C@@H]3O` (stereo partly specified) yielded an Activity of 10 p.p.m.

Consider `C=CC/C(=C\C=C\[C@]1(C)[C@@H](O)CC[C@@]2(C)[C@H]1CCC1Cc3c(n4c5c(c6c(cc35)C3=CC(C)(C)OC(C)(C)C3[C@@H]6O)C(=O)[C@@H]4C(=C)C)[C@@]12C)C(=O)NC(C)(C)C` (stereo partly specified), for which the Activity is 10 p.p.m.

`C=CC/C(=C\C=C\[C@]1(C)[C@@H](O)CC[C@@]2(C)[C@H]1CCC1Cc3c(n4c5c(c6c(cc35)C3=CC(C)(C)OC(C)(C)C3[C@@H]6O)C(=O)[C@@H]4C(=C)C)[C@@]12C)C(=O)N(C)C` (stereo partly specified) registered an Activity of 1 p.p.m.

`C=C(C)[C@H]1C(=O)c2c3c(cc4c5c(n1c24)[C@@]1(C)C(CC[C@H]2[C@](C)(/C=C/C=C(\C)C(=O)O)[C@@H](O)CC[C@@]21C)C5)C1=CC(C)(C)OC(C)(C)C1[C@@H]3O` (stereo partly specified) registered an Activity of 1 p.p.m.

Take `C=C(C)[C@H]1C(=O)c2c3c(cc4c5c(n1c24)[C@@]1(C)C(CC[C@H]2[C@](C)(/C=C/C=C(\C#N)C(=O)N4CCCC4)[C@@H](O)CC[C@@]21C)C5)C1=CC(C)(C)OC(C)(C)C1[C@@H]3O` (stereo partly specified): the Activity came to 10 p.p.m.

In turn, `C=C(C)[C@H]1C(=O)c2c3c(cc4c5c(n1c24)[C@@]1(C)C(CC[C@H]2[C@](C)(/C=C/C=C/C(=O)N(C)C)[C@@H](O)CC[C@@]21C)C5)C1=CC(C)(C)OC(C)(C)C1[C@@H]3O` (stereo partly specified) had an Activity of 0.1 p.p.m.

In the case of `C=CC/C(=C\C=C\[C@]1(C)[C@@H](O)CC[C@@]2(C)[C@H]1CCC1Cc3c(n4c5c(c6c(cc35)C3=CC(C)(C)OC(C)(C)C3[C@@H]6O)C(=O)[C@@H]4C(=C)C)[C@@]12C)C(=O)NCC` (stereo partly specified), the Activity stood at 1 p.p.m.

Consider `C=C(C)[C@H]1C(=O)c2c3c(cc4c5c(n1c24)[C@@]1(C)C(CC[C@H]2[C@](C)(/C=C/C=C\C(N)=O)[C@@H](O)CC[C@@]21C)C5)C1=CC(C)(C)OC(C)(C)C1[C@@H]3O` (stereo partly specified), for which the Activity was determined as 10 p.p.m.

Take `C=C(C)[C@H]1C(=O)c2c3c(cc4c5c(n1c24)[C@@]1(C)C(CC[C@H]2[C@](C)(/C=C/C=C(\CCC)C(=O)NCC)[C@@H](O)CC[C@@]21C)C5)C1=CC(C)(C)OC(C)(C)C1[C@@H]3O` (stereo in doubt; 45): the Activity worked out at 1 p.p.m.

Turning to `C=C(C)[C@H]1C(=O)c2c3c(cc4c5c(n1c24)[C@@]1(C)C(CC[C@H]2[C@](C)(/C=C/C=C(\OC)C(=O)O)[C@@H](O)CC[C@@]21C)C5)C1=CC(C)(C)OC(C)(C)C1[C@@H]3O` (stereo partly specified), the Activity was determined as 10 p.p.m.

Take `C=C(C)[C@H]1C(=O)c2c3c(cc4c5c(n1c24)[C@@]1(C)C(CC[C@H]2[C@](C)(/C=C/C=C(\CCC)C(=O)O)[C@@H](O)CC[C@@]21C)C5)C1=CC(C)(C)OC(C)(C)C1[C@@H]3O` (stereo partly specified): the Activity was over 10 p.p.m.

On to `C=C(C)[C@H]1C(=O)c2c3c(cc4c5c(n1c24)[C@@]1(C)C(CC[C@H]2[C@](C)(/C=C/C(C)=C/C(=O)NC(C)C)[C@@H](O)CC[C@@]21C)C5)C1=CC(C)(C)OC(C)(C)C1[C@@H]3O` (stereo partly specified), for which the Activity was 1 p.p.m.

In turn, `C=C(C)[C@H]1C(=O)c2c3c(cc4c5c(n1c24)[C@@]1(C)C(CC[C@H]2[C@](C)(/C=C/C=C(\CC)C(=O)O)[C@@H](O)CC[C@@]21C)C5)C1=CC(C)(C)OC(C)(C)C1[C@@H]3O` (stereo partly specified) came in with an Activity of 10 p.p.m.

For the compound `C=C(C)[C@H]1C(=O)c2c3c(cc4c5c(n1c24)[C@@]1(C)C(CC[C@H]2[C@](C)(/C=C/C=C/C(=O)NCc4ccccc4)[C@@H](O)CC[C@@]21C)C5)C1=CC(C)(C)OC(C)(C)C1[C@@H]3O` (stereo partly specified), the Activity is 10 p.p.m.

Turning to `C=C(C)[C@H]1C(=O)c2c3c(cc4c5c(n1c24)[C@@]1(C)C(CC[C@H]2[C@](C)(/C=C/C=C(\CCC)C(N)=O)[C@@H](O)CC[C@@]21C)C5)C1=CC(C)(C)OC(C)(C)C1[C@@H]3O` (stereo partly specified), the Activity was found to be 10 p.p.m.

`C=C(C)[C@H]1C(=O)c2c3c(cc4c5c(n1c24)[C@@]1(C)C(CC[C@H]2[C@](C)(/C=C/C=C(\CCCC)C(=O)NC(C)(C)C)[C@@H](O)CC[C@@]21C)C5)C1=CC(C)(C)OC(C)(C)C1[C@@H]3O` (stereo partly specified) displayed an Activity of 10 p.p.m.

`C=C(C)[C@H]1C(=O)c2c3c(cc4c5c(n1c24)[C@@]1(C)C(CC[C@H]2[C@](C)(/C=C/C=C(\CC)C(=O)NC(C)(C)C)[C@@H](O)CC[C@@]21C)C5)C1=CC(C)(C)OC(C)(C)C1[C@@H]3O` (stereo partly specified) gave an Activity of 1 p.p.m.

As for `C=C(C)[C@H]1C(=O)c2c3c(cc4c5c(n1c24)[C@@]1(C)C(CC[C@H]2[C@](C)(/C=C/C=C(\CCC)C(=O)NCC)[C@@H](O)CC[C@@]21C)C5)C1=CC(C)(C)OC(C)(C)C1[C@@H]3O` (stereo in doubt), the Activity amounted to 10 p.p.m.

As to `C=C(C)[C@H]1C(=O)c2c3c(cc4c5c(n1c24)[C@@]1(C)C(CC[C@H]2[C@](C)(/C=C/C=C(\OC)C(N)=O)[C@@H](O)CC[C@@]21C)C5)C1=CC(C)(C)OC(C)(C)C1[C@@H]3O` (stereo partly specified), the Activity came out at 10 p.p.m.

As for `C=C(C)[C@H]1C(=O)c2c3c(cc4c5c(n1c24)[C@@]1(C)C(CC[C@H]2[C@](C)(/C=C/C=C/C(=O)NCC)[C@@H](O)CC[C@@]21C)C5)C1=CC(C)(C)OC(C)(C)C1[C@@H]3O` (stereo partly specified), the Activity is 1 p.p.m.

For the compound `C=C(C)[C@H]1C(=O)c2c3c(cc4c5c(n1c24)[C@@]1(C)C(CC[C@H]2[C@](C)(/C=C/C=C/C(=O)OCc4ccccc4)[C@@H](O)CC[C@@]21C)C5)C1=CC(C)(C)OC(C)(C)C1[C@@H]3O` (stereo partly specified), the Activity came out at 10 p.p.m.

Take `C=C(C)[C@H]1C(=O)c2c3c(cc4c5c(n1c24)[C@@]1(C)C(CC[C@H]2[C@](C)(/C=C/C=C(\F)C(=O)NCC)[C@@H](O)CC[C@@]21C)C5)C1=CC(C)(C)OC(C)(C)C1[C@@H]3O` (stereo partly specified): the Activity turned out to be 1 p.p.m.

For the compound `C=C/C=C/[C@]1(C)[C@@H](O)CC[C@@]2(C)[C@H]1CCC1Cc3c(n4c5c(c6c(cc35)C3=CC(C)(C)OC(C)(C)C3[C@@H]6O)C(=O)[C@@H]4C(=C)C)[C@@]12C` (stereo partly specified), the Activity worked out at 10 p.p.m.

In turn, `C=C(C)[C@H]1C(=O)c2c3c(cc4c5c(n1c24)[C@@]1(C)C(CC[C@H]2[C@](C)(/C=C/C=C/P(=O)(OCC)OCC)[C@@H](O)CC[C@@]21C)C5)C1=CC(C)(C)OC(C)(C)C1[C@@H]3O` (stereo partly specified) came in with an Activity of 10 p.p.m.

Turning to `C=C(C)[C@H]1C(=O)c2c3c(cc4c5c(n1c24)[C@@]1(C)C(CC[C@H]2[C@](C)(/C=C/C=C/C(=O)NC(C)(C)C)[C@@H](O)CC[C@@]21C)C5)C1=CC(C)(C)OC(C)(C)C1[C@@H]3O` (stereo partly specified), the Activity was determined as 1 p.p.m.

Compound `C=CC/C(=C\C=C\[C@]1(C)[C@@H](O)CC[C@@]2(C)[C@H]1CCC1Cc3c(n4c5c(c6c(cc35)C3=CC(C)(C)OC(C)(C)C3[C@@H]6O)C(=O)[C@@H]4C(=C)C)[C@@]12C)C(=O)OC` (stereo partly specified) showed an Activity of 10 p.p.m.

`C=C(C)[C@H]1C(=O)c2c3c(cc4c5c(n1c24)[C@@]1(C)C(CC[C@H]2[C@](C)(/C=C/C=C(\OC)C(=O)NC(C)(C)C)[C@@H](O)CC[C@@]21C)C5)C1=CC(C)(C)OC(C)(C)C1[C@@H]3O` (stereo partly specified) gave an Activity of 1 p.p.m.

Turning to `C=C(C)[C@H]1C(=O)c2c3c(cc4c5c(n1c24)[C@@]1(C)C(CC[C@H]2[C@](C)(/C=C/C(C)=C/C(=O)O)[C@@H](O)CC[C@@]21C)C5)C1=CC(C)(C)OC(C)(C)C1[C@@H]3O` (stereo partly specified), the Activity worked out at 10 p.p.m.
